Drawing on patent US5716971A, “Pyridine derivatives, their production and use” (Takeda Chemical Industries, Ltd., priority 1993, dated 1998), this text covers inhibition and inhibition in vivo for 22 compounds.

Like-named read-outs stand apart in the source and are kept apart here.

Assay [1] concerns specimen of rat aorta. Briefly: Vasorelaxation activity in a specimen of rat aorta: contraction caused by TEA and BaCl2. To be noted: TEA (30-45 mM) and BaCl2 (0.3 mM) contraction, read-out: constriction inhibitory ratio. The procedure: Vasorelaxation activity in a specimen of rat aorta Effects on contraction caused by tetraethylammonium chloride (TEA) and barium chloride (BaCl2)
(§1) Male Wister rats (10 to 13 week old were employed for the experiment. After dehematization, the aorta was excised and a ring specimen (5 mm length) was prepared. The specimen was suspended in a bath filled with oxygenated (95% O2 -5%CO2) Krebs solution (36° C.). The ring specimen was fixed at one end and the other end was connected to a transducer (Nippon Koden) for recording tension to determine the tension. After a stabilization period of one hour, TEA (30-45 mM) and BaCl2 (0.3 mM) were added to the bath to cause vasoconstriction. After the constriction had reached a steady state (after about 15 minutes), a test compound was added to the bath and its relaxation activity was measured.

The test system of assay [2] is specimen of rat aorta. Put plainly: Vasorelaxation activity in a specimen of rat aorta: contraction caused by KCl. The conditions noted are these: read-out: constriction inhibitory ratio. The procedure: as §1
Vasorelaxation activity in a specimen of rat aorta Effects on contraction caused by potassium chloride (KCl)
The same experiment was conducted as in Experiment 1, excepting the use of KCl ([…]) instead of TEA and BaCl2

In assay [3] the test system is Spontaneously hypertensive rats. Briefly: Hypotensive activity in rats (Tail Cuff Method), oral. It is filed as in vivo. The conditions noted are these: Rattus norvegicus, 1 mg/kg, SHR. The method, then: Hypotensive activity in rats (Tail Cuff Method)
Spontaneously hypertensive rats (SHR, male, 20 to 23 week old) were warmed up to 36° C. The blood pressure at the tail aorta was measured by the tail cuff method. The blood pressure was measured three times, i.e. before oral administration of the test compound, two hours after the administration and five hours after the administration. The test compound was orally administered in the state of a suspension in gum arabic.
Maximal, hypotensive effect against the blood pressure before the administration is shown as % pre. in Table 66. As a result, it is apparent that the compounds of this invention show hypotensive activity.

Where [4] appears, read: after 2 hours, read-out: Maximal hypotensive effect against blood pressure before administration (% pre.), after 2 hours.
Where [5] appears, read: after 5 hours, read-out: Maximal hypotensive effect against blood pressure before administration (% pre.), after 5 hours.

For `Cc1cc(O)c(/C(=N/OC(C)(C)C)c2c(O)ccc[n+]2[O-])cc1C` [Compound 125, (Z)-2-(2-hydroxy-4,5-dimethyl-benzoyl)-3-hydroxy pyridine N-oxide O-t-butyloxime], in the assay with specimen of rat aorta [1], the inhibition at 3 µM stood at 25% and the inhibition at 10 µM amounted to 78%. Also, in the assay on specimen of rat aorta [2], the inhibition at 3 µM amounted to 1% and the inhibition at 10 µM came out at 8%.
With `Cc1cc(O)c(/C(=N/OC(C)(C)C)c2ncccc2O)cc1F` [Compound 114, (Z)-2-(5-fluoro-2-hydroxy-4-methylbenzoyl)-3-hydroxy pyridine O-t-butyloxime], the inhibition at 1 µM in the assay on specimen of rat aorta [1] came out at 65%; in the assay with specimen of rat aorta [2], 0%. For the same compound, the inhibition at 3 µM in the assay on specimen of rat aorta [1] stood at 89%; in the assay with specimen of rat aorta [2], 0%.
Turning to `Cc1cc(O)c(/C(=N/OC(C)(C)C)c2ncccc2O)cc1C` [Compound 106, (Z)-2-(2-hydroxy-4,5-dimethylbenzoyl)-3-hydroxy pyridine O-t-butyloxime], in the assay on specimen of rat aorta [1], the inhibition at 1 µM was 2%, the inhibition at 3 µM was 56% and the inhibition at 10 µM is 100%. For the same compound, in the assay with specimen of rat aorta [2], the inhibition at 1 µM was 0%, the inhibition at 3 µM was found to be 5% and the inhibition at 10 µM was found to be 39%.
Turning to `CC(C)(C)O/N=C(/c1cc(Cl)ccc1O)c1c(O)ccc[n+]1[O-]` [Compound 123], the figures for the inhibition at 3 µM in the assay on specimen of rat aorta [1] and with specimen of rat aorta [2] were 52% and 0%, respectively. The inhibition at 10 µM worked out at 91% in the assay on specimen of rat aorta [1] and 0% with specimen of rat aorta [2]. The inhibition in vivo at 1 mg/kg in assay [3] (setting [4]) was determined as 37%; in assay [3] (setting [5]), 12%.
Regarding `CCCCO/N=C(/c1cc(Br)ccc1O)c1ncccc1O` [Compound 18], in the assay on specimen of rat aorta [1], the inhibition at 3 µM is 41% and the inhibition at 10 µM turned out to be 63%.
For the compound `CC(C)(C)O/N=C(/c1cc(Cl)ccc1O)c1ncccc1Cl` [Compound 147, (Z)-2-(5-chloro-2-hydroxybenzoyl)-3-chloro pyridine O-t-butyloxime], the inhibition at 1 µM in the assay with specimen of rat aorta [1] amounted to 100%; with specimen of rat aorta [2], 16%.
For the compound `CC(C)(C)O/N=C(/c1ccc(F)cc1O)c1ncccc1O` [Compound 30, (Z)-2-(4-fluoro-2-hydroxybenzoyl)-3-hydroxypyridine O-t-butyloxime], in the assay with specimen of rat aorta [1], the inhibition at 1 µM is 4%, the inhibition at 3 µM worked out at 50% and the inhibition at 10 µM is 92%. Moreover, in the assay on specimen of rat aorta [2], the inhibition at 3 µM was found to be 1% and the inhibition at 10 µM stood at 18%.
Regarding `CC(C)(C)O/N=C(/c1cc(Cl)c(Cl)cc1O)c1c(O)ccc[n+]1[O-]` [Compound 122, (Z)-2-(4,5-dichloro-2-hydroxybenzoyl)-3-hydroxypyridine N-oxide O-t-butyloxime], the values for the inhibition at 1 µM in the assay with specimen of rat aorta [1] and in the assay on specimen of rat aorta [2] were 100% and 0%, respectively. Also, the results for the inhibition in vivo at 1 mg/kg in assay [3] (setting [4]) and in assay [3] (setting [5]) were 30% and 24%, respectively.
As for `COc1cc(O)c(/C(=N/OC(C)(C)C)c2c(O)ccc[n+]2[O-])cc1Br` [Compound 121, (Z)-2-(5-bromo-2-hydroxy-4-methoxybenzoyl)-3-hydroxy pyridine N-oxide O-t-butyloxime], in the assay with specimen of rat aorta [1], the inhibition at 1 µM turned out to be 3%, the inhibition at 3 µM was 57% and the inhibition at 10 µM worked out at 82%. In the assay with specimen of rat aorta [2], the inhibition at 3 µM came out at 0% and the inhibition at 10 µM stood at 0%.
Turning to `CC(C)(C)O/N=C(/c1cc(Br)c(F)cc1O)c1ncccc1O` [Compound 68, (Z)-2-(5-bromo-4-fluoro-2-hydroxybenzoyl)-3-hydroxypyridine O-t-butyloxime], the inhibition at 1 µM in the assay on specimen of rat aorta [1] came out at 92%; in the assay on specimen of rat aorta [2], 4%.
As to `CC(C)(C)O/N=C(/c1cc(C=O)ccc1O)c1ncccc1O` [Compound 117], in the assay on specimen of rat aorta [1], the inhibition at 1 µM turned out to be 10%, the inhibition at 3 µM turned out to be 52% and the inhibition at 10 µM is 99%. In the assay with specimen of rat aorta [2], the inhibition at 1 µM turned out to be 4%, the inhibition at 3 µM stood at 12% and the inhibition at 10 µM is 32%.
As to `CC(C)(C)O/N=C(/c1cc([N+](=O)[O-])ccc1O)c1c(O)ccc[n+]1[O-]` [Compound 64, (Z)-2-(2-hydroxy-5-nitrobenzoyl)-3-hydroxypyridine N-oxide O-t-butyloxime], in the assay with specimen of rat aorta [1], the inhibition at 3 µM is 43% and the inhibition at 10 µM was 100%. In the assay with specimen of rat aorta [2], the inhibition at 3 µM came to 0% and the inhibition at 10 µM stood at 4%.
With `CC(C)(C)O/N=C(/c1cc(Br)c(Cl)cc1O)c1c(O)ccc[n+]1[O-]` [Compound 119, (Z)-2-(5-bromo-4-chloro-2-hydroxybenzoyl)-3-hydroxypyridine N-oxide O-t-butyloxime], the figures for the inhibition at 1 µM with specimen of rat aorta [1] and in the assay with specimen of rat aorta [2] were 69% and 5%, respectively. Besides, the inhibition at 3 µM was found to be 71% in the assay on specimen of rat aorta [1] and 6% with specimen of rat aorta [2]. In addition, the figures for the inhibition in vivo at 1 mg/kg in assay [3] (setting [4]) and in assay [3] (setting [5]) were 48% and 29%, respectively.
Take `CC(C)(C)O/N=C(/c1cc(Br)ccc1O)c1cccc[n+]1[O-]` [Compound 89, (Z)-2-(5-bromo-2-hydroxybenzoyl)pyridine N-oxide O-t-butyloxime]: the values for the inhibition at 3 µM with specimen of rat aorta [1] and in the assay with specimen of rat aorta [2] were 55% and 11%, respectively. Further, the inhibition at 10 µM with specimen of rat aorta [1] came to 85%; in the assay with specimen of rat aorta [2], 32%.
As to `Cc1cc(/C(=N/OC(C)(C)C)c2ncccc2O)c(O)cc1F` [Compound 111, (Z)-2-(4-fluoro-2-hydroxy-5-methylbenzoyl)-3-hydroxy pyridine O-t-butyloxime], in the assay with specimen of rat aorta [1], the inhibition at 1 µM turned out to be 81% and the inhibition at 3 µM is 92%. Moreover, in the assay on specimen of rat aorta [2], the inhibition at 1 µM is 0% and the inhibition at 3 µM came to 0%.
For `CC(C)(C)O/N=C(/c1cc(F)ccc1O)c1ncccc1O` [Compound 8, (Z)-2-(5-fluoro-2-hydroxybenzoyl)-3-hydroxypyridine O-t-butyloxime], in the assay with specimen of rat aorta [1], the inhibition at 1 µM was 16% and the inhibition at 3 µM came out at 93%. In the assay on specimen of rat aorta [2], the inhibition at 1 µM was -9% and the inhibition at 3 µM was -2%.
With `CC(C)(C)O/N=C(/c1cc(C#N)ccc1O)c1ncccc1O` [Compound 9, (Z)-2-(5-cyano-2-hydroxybenzoyl)-3-hydroxypyridine O-t-butyloxime], the inhibition at 3 µM came out at 22% with specimen of rat aorta [1] and 0% in the assay on specimen of rat aorta [2]. The inhibition at 10 µM with specimen of rat aorta [1] was 82%; in the assay with specimen of rat aorta [2], 10%.
Turning to `Cc1cc(O)c(/C(=N/OC(C)(C)C)c2c(O)ccc[n+]2[O-])cc1F` [Compound 127, (Z)-2-(5-fluoro-2-hydroxy-4-methylbenzoyl)-3-hydroxy pyridine N-oxide O-t-butyloxime], in the assay on specimen of rat aorta [1], the inhibition at 1 µM is 8%, the inhibition at 3 µM stood at 85% and the inhibition at 10 µM came out at 100%. Further, in the assay on specimen of rat aorta [2], the inhibition at 3 µM is 0% and the inhibition at 10 µM was 0%.
For the compound `CC(C)(C)O/N=C(/c1cc(C(F)(F)F)ccc1O)c1ncccc1O` [Compound 4, (Z)-2-(5-trifluoromethyl-2-hydroxybenzoyl)-3-hydroxypyridine O-t-butyloxime], in the assay on specimen of rat aorta [1], the inhibition at 1 µM was 38% and the inhibition at 3 µM is 79%. Besides, in the assay on specimen of rat aorta [2], the inhibition at 1 µM was -2% and the inhibition at 3 µM stood at 7%.
Consider `CC(C)O/N=C(/c1cc(Br)ccc1O)c1ncccc1O` [Compound 19, (Z)-2-(5-bromo-2-hydroxybenzoyl)-3-hydroxypyridine O-i-propyloxime], for which the inhibition at 1 µM in the assay on specimen of rat aorta [1] was 58%; in the assay with specimen of rat aorta [2], -5%. The inhibition at 3 µM in the assay with specimen of rat aorta [1] came to 95%; in the assay with specimen of rat aorta [2], 6%.
In the case of `CC(C)(C)O/N=C(/c1cc(Br)c(F)cc1O)c1c(O)ccc[n+]1[O-]` [Compound 69, (Z)-2-(5-bromo-4-fluoro-2-hydroxybenzoyl)-3-hydroxypyridine N-oxide O-t-butyloxime], the inhibition at 1 µM was found to be 100% in the assay with specimen of rat aorta [1] and 0% in the assay on specimen of rat aorta [2]. The results for the inhibition in vivo at 1 mg/kg in assay [3] (setting [4]) and in assay [3] (setting [5]) were 26% and 19%, respectively.
Regarding `CCOc1cc(O)c(/C(=N/OC(C)(C)C)c2ncccc2O)cc1Cl` [Compound 160], the inhibition at 1 µM with specimen of rat aorta [1] worked out at 100%; in the assay with specimen of rat aorta [2], 18%.
